Here are results for 14 compounds from patent publication US11224224B2, “Thiobenzoimidazole as fungicides” (REDAG CROP PROTECTION LTD, priority 2017, dated 2022).

Holding throughout (assay type): cell-based
Test [1] has as its system Pythium ultimum. In words: Amended agar assay (PDA), colony growth. The note with it: Globisporangium ultimum; for inhibition of growth at 20 ppm: 20 ppm in amended PDA, 18° C., reduction in colony growth vs control plate; for EC50: amended agar, 5-fold dilutions. Here is the method:
(§1) Testing was carried out on potato dextrose agar (PDA) amended with each compound at a test concentration of 20 ppm. Amended agar was poured into three replicate 9 cm petri dishes. Each replicate dish was inoculated in the centre with a 5 mm agar plug taken from the leading edge of a culture aged between 2 and 7 days old; the age of the culture was dependant on the growth rate of the pathogen being tested. The test pathogens were Pythium ultimum and Phytophthora cinnamomi. Plates were incubated at 18° C. and the diameter of each colony measured before growth on the fastest growing plate reached the plate edge. This varied between 2 and 7 days depending on the growth rate of test pathogens. The % reduction in colony growth compared to the control plate was calculated for each pathogen. The results are provided in Table 1, in which D represents no control detected at this concentration; C represents up to 50% control; B from 50 to 99% control; and A represents a control of greater than 99%, i.e. no detectable colony growth.
(§2) Alternatively, or in addition, the same assay was conducted at descending test concentrations with 5-fold dilutions typically down to 0.032 ppm though sometimes as low as 0.00026 ppm, and an EC50 (the concentration at which 50% control would be achieved) was determined. The results are provided in Table 1 in which G represents an EC50 above 20 ppm, F represents an EC50 of 1-20 ppm and E represents and EC50 less than 1 ppm.

Test [2] relates to Phytophthora cinnamomi. In words: Amended agar assay (PDA), colony growth. The note with it: Phytophthora cinnamomi; for inhibition of growth at 20 ppm: 20 ppm in amended PDA, 18° C., reduction in colony growth vs control plate, read-out: % control Phytophthora spp. 20 ppm; for EC50: amended agar, 5-fold dilutions (cells without *), read-out: EC50 Phytophthora spp. The method, then:
as §1, §2

Test [3] has as its system oomycete plant pathogens. In words: Fungicidal activity testing, overall summary. The note with it: summary statement on Table 1. The method, then:
The activity of compounds of the invention was assessed by testing against certain oomycete plant pathogens and representative data are presented in Table 1.

What is called EC50 is the concentration needed to bring the measured effect to its halfway point.

≈ marks a conversion by molar mass, not a printed value.

As to `Cn1nnnc1-n1c(SCc2csc(N)n2)nc2ccccc21` [Example 3], the inhibition of growth at 20 ppm in test [1] and in test [2] was greater than 99% each time. For the same compound, in test [3], the “control over the pathogens tested” value is recorded as “good to excellent control”.
As to `Cn1nnnc1-n1c(SCc2ccccn2)nc2ccc(F)cc21` [Example 7], the EC50 in test [1] and in test [2] was less than 1 µg/mL in each case. Further, the “control over the pathogens tested” value in test [3] is reported as “good to excellent control”.
On to `Cn1nnnc1-n1c(SCc2cccc(NC(=O)OC(C)(C)C)n2)nc2ccccc21` [Example 9], for which the EC50 in test [1] and in test [2] was less than 1 µg/mL each time. Further, the “control over the pathogens tested” value in test [3] is recorded as “good to excellent control”.
With `CC(=O)Nc1nc(CSc2nc3ccccc3n2-c2nnnn2C)cs1` [Example 11], the EC50 in test [1] and in test [2] was less than 1 µg/mL in each case. Moreover, in test [3], the “control over the pathogens tested” value is “good to excellent control”.
Turning to `Cn1nnnc1-n1c(SCc2cscn2)nc2ccccc21` [Example 12], the EC50 in test [1] and in test [2] was less than 1 µg/mL throughout. Besides, in test [3], the “control over the pathogens tested” value is on record as “good to excellent control”.
Take `Cc1nc(CSc2nc3ccccc3n2-c2nnnn2C)cs1` [Example 16]: the inhibition of growth at 20 ppm in test [1] was greater than 99%; in test [2] it was 50 to 99%. Besides, the EC50 in test [1] and in test [2] was 1 to 20 µg/mL (≈ 2.91 to 58.2 µM) in each case. The “control over the pathogens tested” value in test [3] is “good to excellent control”.
`CNc1nc(CSc2nc3ccccc3n2-c2nnnn2C)cs1` [Example 17]: in test [1], the inhibition of growth at 20 ppm is greater than 99% and the EC50 was less than 1 µg/mL. In test [2], the inhibition of growth at 20 ppm is greater than 99% and the EC50 was less than 1 µg/mL. The “control over the pathogens tested” value in test [3] is given as “good to excellent control”.
In test [1], `Cn1nnnc1-n1c(SCc2ccccn2)nc2c(F)cc(F)cc21` [Example 21] came in with an inhibition of growth at 20 ppm greater than 99% and an EC50 of less than 1 µg/mL. Besides, in test [2], the inhibition of growth at 20 ppm is greater than 99% and the EC50 was less than 1 µg/mL. Further, the “control over the pathogens tested” value in test [3] is “good to excellent control”.
Take `Cn1nnnc1-n1c(SCc2csc(NC(=O)C(F)(F)Oc3ccccc3)n2)nc2ccccc21` [Example 22]: the EC50 in test [1] and in test [2] was less than 1 µg/mL throughout. In test [3], the “control over the pathogens tested” value is on record as “good to excellent control”.
Regarding `Cn1nnnc1-n1c(SCc2csc(NC(=O)OC(C)(C)C)n2)nc2ccccc21` [Example 23], the EC50 in test [1] and in test [2] was less than 1 µg/mL throughout. Besides, the “control over the pathogens tested” value in test [3] is given as “good to excellent control”.
In the case of `Cn1nnnc1-n1c(SCc2cccc(N)n2)nc2ccccc21` [Example 26, 6-(((1-(1-Methyl-1H-tetrazol-5-yl)-1H-benzo[d]imidazol-2-yl)thio)methyl)pyridin-2-amine], the inhibition of growth at 20 ppm in test [1] and in test [2] was greater than 99% each time. The “control over the pathogens tested” value in test [3] was “good to excellent control”.
`CC(=O)Nc1cccc(CSc2nc3ccccc3n2-c2nnnn2C)n1` [Example 27, N-(6-(((1-(1-Methyl-1H-tetrazol-5-yl)-1H-benzo[d]imidazol-2-yl)thio)methyl)pyridin-2-yl)acetamide]: the inhibition of growth at 20 ppm in test [1] was greater than 99%; in test [2] it was 50 to 99%. Besides, the “control over the pathogens tested” value in test [3] is “good to excellent control”.
As to `CCOC(=O)Nc1cccc(CSc2nc3ccccc3n2-c2nnnn2C)n1` [Example 28, Ethyl (6-(((1-(1-methyl-1H-tetrazol-5-yl)-1H-benzo[d]imidazol-2-yl)thio)methyl)pyridin-2-yl)carbamate], the EC50 in test [1] and in test [2] was less than 1 µg/mL throughout. In test [3], the “control over the pathogens tested” value is “good to excellent control”.
Consider `O=C(Nc1cccc(CSc2nc3ccccc3n2-c2ncncc2Cl)n1)C(F)(F)Oc1ccccc1` [Example 45], for which the EC50 in test [1] and in test [2] was less than 1 µg/mL each time. The “control over the pathogens tested” value in test [3] is recorded as “good to excellent control”.
